Data reported in patent US10131652B2, “Pyrimidinyloxy benzene derivatives as herbicides” (E. I. DU PONT DE NEMOURS AND COMPANY, priority 2014, dated 2018).

Experiments:
Format in all cases: in vivo
[1] = system: small-flower umbrella sedge (Cyperus difformis); assay: Test C flooded paddy test plant response; settings: Flood, 250 g ai/ha; scale of 0 to 100 where 0 is no effect and 100 is complete control; 13 to 15 days
In short: (§1)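 2-leaf plants; flood 3 cm, cpd into paddy water; greenhouse 13–15 d; visual score vs untreated, 0 = no effect, 100 = complete control; dash = no result.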

[2] = system: ducksalad (Heteranthera limosa); assay: Test C flooded paddy test plant response; settings: Flood, 250 g ai/ha; scale of 0 to 100 where 0 is no effect and 100 is complete control; 13 to 15 days
In short: as §1

rice (Oryza sativa) = assay: Test C flooded paddy test plant response; settings: Flood, 250 g ai/ha; scale of 0 to 100 where 0 is no effect and 100 is complete control; 13 to 15 days
In short: as §1

[3] = system: barnyardgrass (Echinochloa crus-galli); assay: Test C flooded paddy test plant response; settings: Flood, 250 g ai/ha; scale of 0 to 100 where 0 is no effect and 100 is complete control; 13 to 15 days
In short: as §1

[4] = system: pigweed (Amaranthus retroflexus); assay: Test B pre-/postemergence plant response
In short: (§2)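 Visual injury rating, 0 (no effect) to 100 (complete control), vs untreated controls after ~10 d greenhouse. Pre: directed soil spray after planting in loam/sand. Post: plants 2–10 cm, 1–2 leaf stage. Compound in non-phytotoxic solvent plus surfactant.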

[5] = system: giant foxtail (Setaria faberii); assay: Test B pre-/postemergence plant response
In short: as §2

corn (Zea mays) = assay: Test B pre-/postemergence plant response
In short: as §2

[6] = system: barnyardgrass (Echinochloa crus-galli); assay: Test B pre-/postemergence plant response
In short: as §2

[7] = system: wheat (Triticum aestivum); assay: Test B pre-/postemergence plant response
In short: as §2

[8] = system: blackgrass (Alopecurus myosuroides); assay: Test D pre-/postemergence plant response; settings: Postemergence; for Plant response rating, Blackgrass: scale 0 to 100, 0 no effect, 100 complete control
In short: (§3)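 Seeds sown in loam–sand blend got preemergence sprays of test chemicals in a non-phytotoxic solvent with surfactant; postemergence sprays went on plants at 1- to 4-leaf stage (2 to 18 cm) in peat/vermiculite medium. After 13 to 15 days in greenhouse, visual injury versus controls scored 0 (no effect) to 100 (complete control).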

[9] = system: winter wheat (Triticum aestivum); assay: Test D pre-/postemergence plant response; settings: Postemergence
In short: as §3

[10] = system: johnsongrass (Sorghum halepense); assay: Test D pre-/postemergence plant response; settings: Postemergence; for Plant response rating, Johnsongrass: scale 0 to 100, 0 no effect, 100 complete control
In short: as §3

[11] = system: galium (catchweed bedstraw, Galium aparine); assay: Test D pre-/postemergence plant response; settings: Postemergence; for Plant response rating, Galium: scale 0 to 100, 0 no effect, 100 complete control
In short: as §3

[12] = system: large (Lg) crabgrass (Digitaria sanguinalis); assay: Test D pre-/postemergence plant response; settings: Postemergence; for Plant response rating, Crabgrass, Large: scale 0 to 100, 0 no effect, 100 complete control
In short: as §3

[13] = system: velvetleaf (Abutilon theophrasti); assay: Test D pre-/postemergence plant response; settings: Postemergence
In short: as §3

[14] = system: lambsquarters (Chenopodium album); assay: Test D pre-/postemergence plant response; settings: Postemergence
In short: as §3

[15] = 31 g ai/ha, Preemergence, 0 to 100 scale where 0 is no effect and 100 is complete control
[16] = 125 g ai/ha, postemergence, 0 to 100 scale, 0 no effect, 100 complete control
[17] = Postemergence, 31 g ai/ha, 0 to 100 scale (0 no effect, 100 complete control)
[18] = Preemergence, 125 g ai/ha, 0 to 100 scale (0 no effect, 100 complete control)
[19] = 31 g ai/ha, scale 0 to 100 (0 no effect, 100 complete control)
[20] = 62 g ai/ha, scale 0 to 100, 0 no effect, 100 complete control
[21] = 125 g ai/ha, scale 0 to 100, 0 no effect, 100 complete control

## CC(F)(F)c1cc(-c2ccccc2Oc2ncc(Cl)cn2)on1 [Compound 178]
[1]
  Sedge, Umbrella plant response rating: 85
[2]
  Ducksalad plant response rating: 90
Rice (Oryza sativa)
  Rice plant response rating: 0
[3]
  Barnyardgrass plant response rating: 40
[4]; [15]
  Plant response rating, Pigweed: 90
[4]; [16]
  Plant response rating, Pigweed: 100
[4]; [17]
  Plant response rating, Pigweed: 100
[4]; [18]
  Pigweed plant response rating: 100
[5]; [15]
  Plant response rating, Foxtail, Giant: 60
[5]; [16]
  Plant response rating, Foxtail, Giant: 60
[5]; [17]
  Plant response rating, Foxtail, Giant: 10
[5]; [18]
  Foxtail, Giant plant response rating: 90
Corn (Zea mays); [16]
  Plant response rating, Corn: 20
Corn (Zea mays); [17]
  Plant response rating, Corn: 0
[6]; [15]
  Plant response rating, Barnyardgrass: 20
[6]; [16]
  Plant response rating, Barnyardgrass: 40
[6]; [17]
  Plant response rating, Barnyardgrass: 0
[6]; [18]
  Barnyardgrass plant response rating: 70
[7]; [16]
  Plant response rating, Wheat: 10
[7]; [17]
  Plant response rating, Wheat: 0
[8]; 16 g ai/ha
  Plant response rating (scale 0 to 100), Blackgrass: 0
[8]; [19]
  Blackgrass plant response rating: 5
[8]; 62 g ai/ha
  Plant response rating, Blackgrass: 10
[8]; 125 g ai/ha
  Plant response rating, Blackgrass: 15
[9]; 16 g ai/ha
  Plant response rating (scale 0 to 100), Wheat: 0
[9]; [19]
  Wheat plant response rating: 5
[9]; [20]
  Wheat plant response rating: 5
[9]; [21]
  Plant response rating, Wheat: 10
[10]; 16 g ai/ha
  Plant response rating (scale 0 to 100), Johnsongrass: 10
[10]; [19]
  Johnsongrass plant response rating: 10
[10]; 62 g ai/ha
  Plant response rating, Johnsongrass: 15
[10]; 125 g ai/ha
  Plant response rating, Johnsongrass: 10
[11]; 16 g ai/ha
  Plant response rating (scale 0 to 100), Galium: 75
[11]; [19]
  Galium plant response rating: 80
[11]; 62 g ai/ha
  Plant response rating, Galium: 98
[11]; 125 g ai/ha
  Plant response rating, Galium: 85
[12]; 16 g ai/ha
  Plant response rating (scale 0 to 100), Crabgrass, Large: 5
[12]; [19]
  Crabgrass, Large plant response rating: 10
[12]; 62 g ai/ha
  Plant response rating, Crabgrass, Large: 20
[12]; 125 g ai/ha
  Plant response rating, Crabgrass, Large: 15
[13]; 16 g ai/ha
  Plant response rating (scale 0 to 100), Velvetleaf: 60
[13]; [19]
  Velvetleaf plant response rating: 40
[13]; [20]
  Velvetleaf plant response rating: 60
[13]; [21]
  Plant response rating, Velvetleaf: 75
[14]; 16 g ai/ha
  Plant response rating (scale 0 to 100), Lambsquarters: 25
[14]; [19]
  Lambsquarters plant response rating: 70
[14]; [20]
  Lambsquarters plant response rating: 75
[14]; [21]
  Plant response rating, Lambsquarters: 90
